Results on 23 compounds are retold here after paper PMC5678585, “Screening a protein kinase inhibitor library against Plasmodium falciparum” (Malaria Journal, 2017).

Read-outs that look alike come from different tables or passages of the source.

The term EC50 denotes the midpoint of the concentration-response curve.

Data set [1] relates to Plasmodium falciparum 3D7. Nature of the data set: microbe, parasite or virus in culture. As for the experimental part:
Growth inhibition was quantified using a fluorescence assay utilizing the binding of SYBR Green I to double stranded DNA, which emits a fluorescent signal at 528 nm after excitation at 485 nm. The SYBR Green assay system was adapted to maximize robustness and to align with available automation systems. The Prestwick Library then used as a pilot screen to validate the performance of the optimized assay. […] Single point screens were carried out, and the potency of compounds of interest was determined in duplicate on two independent occasions. A 96-well [^3H]-Hypoxanthine incorporation assay was also developed as a secondary assay in order to validate key compounds from each hit series in an orthogonal platform.
(§1) All data were processed using IDBS ActivityBase. […] The formula used to calculate Z’ is 1-3×(StDev_high+StDev_low)/ABS(Mean_high-Mean_low) .
Two independent assays were run.

In data set [2] the test system is Plasmodium falciparum. Nature of the data set: [3H]-Hypoxanthine incorporation assay (orthogonal, radiometric). Format: cell-based. As for the experimental part: Cultures of 3D7, a P. falciparum chloriquine sensitive reference strain, were maintained in a 5% suspension of A+ human red blood cells (obtained from East of Scotland Blood Transfusion Service, Ninewells Hospital, Dundee, UK) cultured in RPMI 1640 medium (pH 7.3) supplemented with 0.5% Albumax II (Gibco Life Technologies, San Diego, CA, USA), 12 mM sodium bicarbonate, 0.2 mM hypoxanthine, and 20 mg/l gentamicin at 37 °C, in a humidified atmosphere of 1% O2, 3% CO2 with a balance of nitrogen. Growth inhibition was quantified using a fluorescence assay utilizing the binding of SYBR Green I to double stranded DNA, which emits a fluorescent signal at 528 nm after excitation at 485 nm. The SYBR Green assay system was adapted to maximize robustness and to align with available automation systems. The Prestwick Library then used as a pilot screen to validate the performance of the optimized assay. […] Single point screens were carried out, and the potency of compounds of interest was determined in duplicate on two independent occasions. A 96-well [^3H]-Hypoxanthine incorporation assay was also developed as a secondary assay in order to validate key compounds from each hit series in an orthogonal platform.
The traditionally used [^3H]-hypoxanthine incorporation assay is labour intensive, low throughput and requires the use of radio-labelled hypoxanthine.

Data set [3] relates to normal diploid human fibroblasts (MRC-5 pd30). As to the kind of experiment: in vitro. Format: cell-based. As for the experimental part: (§2) Cells were plated and incubated overnight to allow them to adhere as monolayers. A working stock of each test compound was transferred to an intermediate 384-well plate and pre-diluted with minimum essential media (MEM). The pre-diluted stocks were then transferred onto the cell monolayers, and the plates were incubated for 68 h. Resazurin, to a final concentration of 50 μM was added to each well, after which plates were incubated for a further 3 h and measured for fluorescence (λ ex = 528 nm, λ em = 590 nm).
as §1
(§3) All EC50 Curve fitting was undertaken using XLFit version 4.2 using Model 205 with the following 4 parametric equation: y=A+B-A/1+[…], where A = % inhibition at bottom, B = % inhibition at top, C = EC50, D = slope, x = inhibitor concentration and y = % inhibition.

The test system is the same in data set [4]. Particulars: read-out: MRC5 EC50, cited from earlier work.
Data set [5] deals with Plasmodium falciparum 3D7. The conditions noted are these: Table 7, MMV04 SAR; data reported previously ref 24, 25; read-out: P. fal. EC50; cited from earlier work.
A short description of data set [6]: in vitro. Particulars: human, MRC-5 pd30 normal diploid fibroblasts (monolayers); Table 8, MMV03 SAR; read-out: MRC5 EC50. The class given is cell-based. As for the experimental part: as §2, §1, §3
[7] abbreviates: read-out: EC50 Fluorescent (SYBR Green), C.I. 95%, n = 4.
Where [8] appears, read: read-out: EC50 P. falciparum, Table 4, primary hits of kinase library.
[9] abbreviates: read-out: P. fal. EC50, Table 6, MMV02 SAR.
[10] abbreviates: C.I. 95%, n = 2, read-out: EC50 Radiometric ([3H]-hypoxanthine).
Where [11] appears, read: Table 4, primary hits of kinase library, read-out: EC50 MRC5 cells.
[12] abbreviates: Table 6, MMV02 SAR, read-out: MRC5 EC50.
[13] abbreviates: read-out: P. fal. EC50, Table 8, MMV03 SAR.
Where [14] appears, read: Table 8, MMV03 SAR, read-out: MRC5 EC50.
Setting [15] is: read-out: P. fal. EC50, Table 7, MMV04 SAR.
Setting [16] is: Table 7, MMV04 SAR, read-out: MRC5 EC50.
Setting [17] is: Plasmodium falciparum, 3D7, read-out: P. fal. EC50.

For `Fc1ccc(-c2cc(Nc3ccncc3)nc(-c3ccccc3)n2)cc1` [Compound A0002], the EC50 in data set [1] (setting [7]) was determined as 0.23 ± 0.04 µM; in data set [1] (setting [8]) it was 0.2 µM; in data set [1] (setting [9]) it was 0.2 µM; in data set [2] (setting [10]), 0.06 ± 0.07 µM; in data set [3] (setting [11]), 6 µM; in data set [3] (setting [12]), 6 µM.
On to `O=C(Nc1cccnc1)c1cn(-c2ccccc2)nc1-c1cccs1` [Compound A0003], for which the “LLE (ligand-lipophilicity efficiency)” value in data set [1] (Table 8, MMV03 SAR) is recorded as 3.2. Moreover, the EC50 in data set [1] (setting [7]) is 0.59 ± 0.12 µM; in data set [1] (setting [8]), 0.6 µM; in data set [1] (setting [13]), 0.3 µM; in data set [2] (setting [10]), 0.15 ± 0.25 µM; in data set [3] (setting [11]), more than 15 µM; in data set [3] (setting [14]), more than 50 µM.
For `O=C(Nc1cccnc1)c1cc(-c2cccnc2)nc2ccc(Br)cc12` [Compound A0004], the EC50 in data set [1] (setting [7]) was 0.7 ± 0.07 µM; in data set [1] (setting [8]), 0.7 µM; in data set [1] (setting [15]), 0.7 µM; in data set [2] (setting [10]), 0.41 ± 0.47 µM; in data set [3] (setting [11]), more than 15 µM; in data set [3] (setting [16]), more than 15 µM.
`Cc1cc(NC(=O)c2cn(-c3ccccc3)nc2-c2cccs2)[nH]n1` [Compound A0012]: in data set [1] (Table 8, MMV03 SAR), the “LLE (ligand-lipophilicity efficiency)” value stood at 1.9. Moreover, the EC50 amounted to 6 µM in data set [1] (setting [13]) and 24 µM in data set [3] (setting [14]).
For `Fc1ccccc1-c1cc(Nc2ccncc2)nc(-c2ccccc2)n1` [Compound A0021], the EC50 in data set [4] (Table 6, MMV02 SAR, data reported previously ref 23) was more than 50 µM.
As for `FC(F)(F)Oc1ccc(Nc2cc(-c3cccc(C(F)(F)F)c3)nc(-c3ccccc3)n2)cc1` [Compound A0022], the “activity against P. falciparum relative to A0002” value in data set [1] (MMV02 series) is “tenfold less active”. For the same compound, the EC50 came out at 2.3 µM in data set [1] (setting [9]) and 11 µM in data set [3] (setting [12]).
For the compound `CCOC(=O)c1ccc(NC(=O)c2cc(-c3cccnc3)nc3ccc(Cl)cc23)cc1` [Compound A0024], the EC50 in data set [1] (setting [15]) amounted to 0.2 µM; in data set [3] (setting [16]) it was 18 µM.
For the compound `Cc1ccc(-c2cc(C(=O)Nc3cccnc3)c3cc(Br)ccc3n2)cc1` [Compound A0031], in data set [1] (MMV04 series), the “activity against P. falciparum relative to A0004” value is “fivefold more active”. Moreover, the EC50 is 0.12 µM in data set [5] and 20 µM in data set [4] (Table 7, MMV04 SAR, data reported previously ref 24, 25).
As for `O=C(Nc1nc2ccccc2[nH]1)c1cn(-c2ccccc2)nc1-c1cccnc1` [Compound A0032], in data set [1] (Table 8, MMV03 SAR), the “LLE (ligand-lipophilicity efficiency)” value amounted to 2.9. Besides, the EC50 in data set [1] (setting [13]) is 0.5 µM; in data set [3] (setting [14]), 21 µM.
Taken in the same sequence, the figures for `O=C(Nc1ccncc1)c1cn(-c2ccccc2)nc1-c1cccs1` [Compound A0033] were 2.9, 0.7 µM and 39 µM.
For `O=C(Nc1nc2ccccc2[nH]1)c1cn(-c2ccccc2)nc1-c1cccs1` [Compound A0034], the EC50 in data set [1] (setting [17]) is 0.8 µM. Moreover, the “LLE (ligand-lipophilicity efficiency)” value in data set [1] (Table 8, MMV03 SAR) was 2. Also, in data set [6], the EC50 at 68 h turned out to be 13 µM.
As for `CC(C)CCNC(=O)c1cn(-c2ccccc2)nc1-c1cccs1` [Compound A0036], in data set [1] (Table 8, MMV03 SAR), the “LLE (ligand-lipophilicity efficiency)” value was 1.1. Besides, the EC50 in data set [1] (setting [13]) is 18 µM; in data set [3] (setting [14]) it was 50 µM.
For the compound `CCN(CC)CCNC(=O)c1cn(-c2ccccc2)nc1-c1cccs1` [Compound A0037], the “LLE (ligand-lipophilicity efficiency)” value in data set [1] (Table 8, MMV03 SAR) is recorded as 2.7. Besides, the values for the EC50 in data set [1] (setting [13]) and in data set [3] (setting [14]) were 13 µM and 18 µM, respectively.
Taken in the same sequence, the figures for `O=C(Nc1cccnc1)c1cn(-c2ccccc2)nc1-c1cccnc1` [Compound A0038] were 3.2, 2 µM and 18 µM.
For the compound `CC(C)c1nn(-c2ccccc2)cc1C(=O)Nc1cccnc1` [Compound A0039], the EC50 in data set [1] (setting [17]) was 21 µM. Further, the “LLE (ligand-lipophilicity efficiency)” value in data set [1] (Table 8, MMV03 SAR) is on record as 2.1. In data set [6], the EC50 at 68 h was 50 µM.
Taken in the same sequence, the figures for `Cc1nn(-c2ccccc2)cc1C(=O)Nc1cccnc1` [Compound A0040] were 10 µM, 2.8 and 50 µM.
Take `N#Cc1ccc(-n2cc(C(=O)Nc3nc4ccccc4[nH]3)c(-c3cccnc3)n2)cc1` [Compound A0041]: in data set [1] (Table 8, MMV03 SAR), the “LLE (ligand-lipophilicity efficiency)” value is 3.2. Besides, the EC50 in data set [1] (setting [13]) is 0.4 µM; in data set [3] (setting [14]), 15 µM.
In the case of `O=C(Nc1nc2ccccc2[nH]1)c1cn(-c2ccc(F)cc2)nc1-c1cccnc1` [Compound A0042], the “LLE (ligand-lipophilicity efficiency)” value in data set [1] (Table 8, MMV03 SAR) is 2.8. Besides, the results for the EC50 in data set [1] (setting [13]) and in data set [3] (setting [14]) were 0.6 µM and 14 µM, respectively.
For the compound `CC(C)(C)n1cc(C(=O)Nc2nc3ccccc3[nH]2)c(-c2cccnc2)n1` [Compound A0043], the EC50 in data set [1] (setting [17]) turned out to be 14 µM. The “LLE (ligand-lipophilicity efficiency)” value in data set [1] (Table 8, MMV03 SAR) is recorded as 1.2. In data set [6], the EC50 at 68 h is more than 50 µM.
For `Cn1cc(C(=O)Nc2cccnc2)c(-c2cccs2)n1` [Compound A0044], the EC50 in data set [1] (setting [17]) was more than 50 µM. In addition, the “LLE (ligand-lipophilicity efficiency)” value in data set [1] (Table 8, MMV03 SAR) came out at 2. Also, the EC50 at 68 h in data set [6] is more than 50 µM.
Take `COc1cc(NC(=O)c2cc(-c3cccnc3)nc3ccc(Br)cc23)cc(OC)c1` [Compound A0410]: the results for the EC50 in data set [1] (setting [15]) and in data set [3] (setting [16]) were 0.74 µM and more than 50 µM, respectively.
Taken in the same sequence, the figures for `O=C(Nc1cccnc1)c1cc(-c2cccnc2)nc2ccc(Cl)cc12` [Compound A0421] were 0.38 µM and more than 50 µM.
On to `OC(c1cc(C(F)(F)F)nc2c(C(F)(F)F)cccc12)C1CCCCN1` (stereo not shown) [Mefloquine, reference compound], for which the EC50 in data set [1] (Plasmodium falciparum, 3D7) was 0.048 ± 0.004 µM; in data set [2] (Plasmodium falciparum, [3H]-hypoxanthine incorporation assay, read-out: EC50), 0.007 to 0.01 µM.
